Key:
C57B1/6 mice = system: C57B1/6 mice
Description: Cardiac injury. Myocardial injury is cryogenically initiated, employing a technique adapted from Taylor et al. (1998) (ref 28). Adult MRL and C57B1/6 mice (6-8 weeks of age) were anaesthetized using an intraperitoneal injection of ketamine (100 mg/kg) and xylazine (15 mg/kg). A 2 mm diameter blunt probe cooled to the temperature of liquid Nitrogen is then introduced, trans-diaphragmatically, to the right ventricular surface of the heart.
Access to the diaphragm was accomplished by a 6-8 mm incision made through the skin on the ventral surface of the abdomen below the ribcage approximately 5 mm posterior to—and approximately 5 mm to the left of the ventral midline—the sternum. The underlying musculature was incised to an equivalent extent. The diaphragm was exposed using forceps to retract the medial lobe of the liver. The right ventricular surface of the heart was thus presented directly adjacent to, and clearly visible through, the diaphragm. Injury to the heart was achieved by holding the cryoprobe in contact with the diaphragmatic surface for 10 seconds and repeated using a second, identical cryoprobe. The abdominal musculature was then repositioned and closed using 6-0 […] suture. The 6-0 nylon suture was also used for skin closure.
Histology Frozen sections: Hearts were removed and frozen in isopentane cooled to −160° C. in liquid nitrogen. Eight micron-thick sections were cut for immunohistochemistry and histology. Fixed sections: Hearts were fixed in Prefer Fixative (Anatheh Ltd.). Paraffin-embedded sections cut to a thickness of 5 microns were used for both histology and immunohistochemistry.
We also treated nonhealer C57B1/6 mice with PTU, which is known to inhibit thyroid activity.

B6 mouse = conditions: 15 days after PTU treatment
MRL mice = assay: Cryo-injury of the heart in MRL (healer) mice given slow-release T3 pellets; type: in vivo, mouse; conditions: pellets containing 0.01 mg T3, slow release (21 days), 0.0005 mg/day, injured one day later
Description: The underlying musculature was incised to an equivalent extent.
To determine whether administering T3 to MRL mice inhibits healing of ear and heart wounds, we placed pellets containing 0.01 mg of T3 in a slow release formulation (21 days) in MRL mice. Via these pellets, the mice received 0.0005 mg/day of T3 . Mice were injured one day later.

[1] = wounded C57B1/6 mice pretreated with PTU

| SMILES | Heart wound healing and epithelial growth at larger concentrations (C57B1/6 mice; C57B1/6 mice, PTU 2 or 3 mg/day) | Epithelial layer versus untreated C57B1/6 mice (C57B1/6 mice; [1]) | Growth of myocardium versus untreated C57B1/6 mice (C57B1/6 mice; [1]) | Ear hole size versus untreated B6 ear holes (B6 mouse) | Proliferation in ear hole wound (B6 mouse) | Healing of heart wound (MRL mice) | Heart wound scarring / fibrotic tissue (MRL mice; by day 15) |
| --- | --- | --- | --- | --- | --- | --- | --- |
| CCCc1cc(=O)[nH]c(=S)[nH]1 [PTU, propylthiouracil] | better healing and greater epithelial growth | more intact epithelial layer | significantly greater growth of myocardium | smaller | impressive degree of epithelial proliferation, as well as muscle and adipocyte proliferation |  |  |
| N[C@@H](Cc1cc(I)c(Oc2ccc(O)c(I)c2)c(I)c1)C(=O)O [T3] |  |  |  |  |  | never healed | severely scarred, with a large degree of fibrotic tissue |

Reference: patent US6852706B1, “Methods and compositions for healing heart wounds” (The Wistar Institute, priority 2000, dated 2005)
